Test results: ChEMBL document CHEMBL4325844, “Development of 2-amino-4-phenylthiazole analogues to disrupt myeloid differentiation factor 88 and prevent inflammatory responses in acute lung injury” (Eur J Med Chem, 2019)
Activity calls are given as the source filed them. The rule behind the calls is not given here.

Columns and labels:
[1] = tested on: Mus musculus; assay: Antiinflammatory activity in LPS-induced C57/BL6 mouse model of acute lung injury assessed as reduction in lung tissue destruction at 10 mg/kg, ip pretreated for 30 mins followed by LPS challenge measured after 6 hrs by hematoxylin and eosin staining based microscopic analysis; format: functional, organism-based
[2] = tested on: Mus musculus; assay: Antiinflammatory activity in LPS-induced C57/BL6 mouse model of acute lung injury assessed as reduction in ICAM1 mRNA expression at 10 mg/kg, ip pretreated for 30 mins followed by LPS challenge measured after 6 hrs by SYBR green dye based RT-qPCR analysis; format: functional, organism-based
[3] = tested on: Mus musculus; assay: Antiinflammatory activity in LPS-induced C57/BL6 mouse model of acute lung injury assessed as reduction in neutrophil inflammatory infiltration at 10 mg/kg, ip pretreated for 30 mins followed by LPS challenge measured after 6 hrs by F4/80/hematoxylin staining based microscopic analysis; format: functional, organism-based
[4] = tested on: Mus musculus; assay: Antiinflammatory activity in LPS-induced C57/BL6 mouse model of acute lung injury assessed as reduction in macrophage inflammatory infiltration at 10 mg/kg, ip pretreated for 30 mins followed by LPS challenge measured after 6 hrs by F4/80/hematoxylin staining based microscopic analysis; format: functional, organism-based
[5] = tested on: Mus musculus; assay: Antiinflammatory activity in LPS-induced C57/BL6 mouse model of acute lung injury assessed as reduction in total protein levels in BALF at 10 mg/kg, ip pretreated for 30 mins followed by LPS challenge measured after 6 hrs; format: functional, organism-based
[6] = Cytotoxicity against rat NRK cells assessed as cell viability at 20 uM after 24 hrs by MTT assay relative to control; format: cell-based; conditions: read-out: Activity
[7] = tested on: Mus musculus; assay: Antiinflammatory activity in LPS-induced C57/BL6 mouse model of acute lung injury assessed as reduction in IL6 mRNA expression at 10 mg/kg, ip pretreated for 30 mins followed by LPS challenge measured after 6 hrs by SYBR green dye based RT-qPCR analysis; format: functional, organism-based
[8] = tested on: Mus musculus; assay: Antiinflammatory activity in LPS-induced C57/BL6 mouse model of acute lung injury assessed as reduction in TNFalpha level in serum at 10 mg/kg, ip pretreated for 30 mins followed by LPS challenge measured after 6 hrs by ELISA; format: functional, organism-based
[9] = target: Myeloid differentiation primary response protein MyD88 (Mus musculus) (UniProt P22366); assay: Inhibition of MyD88 in mouse RAW264.7 cells expressing EGFP-fused NFkappaB at 10 uM preincubated for 30 mins followed by LPS-stimulation and measured after 1 hr by fluorescence assay; format: cell-based
Myeloid differentiation primary response protein MyD88 (Mus musculus), sequence (P22366 whole entry, the tested form may be a part): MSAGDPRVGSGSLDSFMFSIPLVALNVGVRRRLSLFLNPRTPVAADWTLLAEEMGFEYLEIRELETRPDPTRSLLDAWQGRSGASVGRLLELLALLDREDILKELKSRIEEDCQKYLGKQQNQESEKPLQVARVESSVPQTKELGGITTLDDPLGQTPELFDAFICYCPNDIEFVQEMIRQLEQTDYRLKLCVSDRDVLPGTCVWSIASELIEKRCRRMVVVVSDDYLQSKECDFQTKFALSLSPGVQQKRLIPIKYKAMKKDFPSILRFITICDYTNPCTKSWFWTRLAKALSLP

[10] = target: Myeloid differentiation primary response protein MyD88 (Mus musculus) (UniProt P22366); assay: Inhibition of MyD88 in ICR mouse primary peritoneal macrophages assessed as reduction in LPS-induced p38 MAPK phosphorylation at 20 uM preincubated for 30 mins followed by LPS-stimulation and measured after 20 mins by Western blot analysis
[11] = target: Myeloid differentiation primary response protein MyD88 (Mus musculus) (UniProt P22366); assay: Inhibition of MyD88 in ICR mouse primary peritoneal macrophages assessed as reduction in LPS-induced JNK phosphorylation at 20 uM preincubated for 30 mins followed by LPS-stimulation and measured after 20 mins by Western blot analysis
[12] = tested on: Mus musculus; assay: Antiinflammatory activity in LPS-induced C57/BL6 mouse model of acute lung injury assessed as reduction in TNFalpha mRNA expression at 10 mg/kg, ip pretreated for 30 mins followed by LPS challenge measured after 6 hrs by SYBR green dye based RT-qPCR analysis; format: functional, organism-based
[13] = target: Myeloid differentiation primary response protein MyD88 (Homo sapiens, UniProt Q99836); assay: Potency index, ratio of TJ-M2010-5 Kd to test compound Kd for recombinant human MyD88 TIR domain (157 to 296 residues) expressed in Escherichia coli BL21(DE3)
Myeloid differentiation primary response protein MyD88, sequence (Q99836 whole entry, the tested form may be a part): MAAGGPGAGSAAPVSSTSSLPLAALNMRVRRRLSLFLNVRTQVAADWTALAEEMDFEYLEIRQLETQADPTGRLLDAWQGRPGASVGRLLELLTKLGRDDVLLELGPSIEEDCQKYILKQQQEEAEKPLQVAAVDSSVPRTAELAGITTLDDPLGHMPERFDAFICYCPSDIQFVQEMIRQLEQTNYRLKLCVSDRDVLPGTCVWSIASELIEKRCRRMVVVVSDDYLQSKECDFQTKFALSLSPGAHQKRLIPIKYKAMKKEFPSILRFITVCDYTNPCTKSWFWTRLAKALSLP

[14] = Cytotoxicity against rat H9c2 cells assessed as cell viability at 20 uM after 24 hrs by MTT assay relative to control; format: cell-based; conditions: read-out: Activity
[15] = target: Toll-like receptor 4 (Homo sapiens) (UniProt O00206); assay: Binding affinity to recombinant human 10His-tagged TLR4 (24 to 631 residues) by SPR assay
Toll-like receptor 4 (Homo sapiens), sequence (O00206 whole entry, the tested form may be a part): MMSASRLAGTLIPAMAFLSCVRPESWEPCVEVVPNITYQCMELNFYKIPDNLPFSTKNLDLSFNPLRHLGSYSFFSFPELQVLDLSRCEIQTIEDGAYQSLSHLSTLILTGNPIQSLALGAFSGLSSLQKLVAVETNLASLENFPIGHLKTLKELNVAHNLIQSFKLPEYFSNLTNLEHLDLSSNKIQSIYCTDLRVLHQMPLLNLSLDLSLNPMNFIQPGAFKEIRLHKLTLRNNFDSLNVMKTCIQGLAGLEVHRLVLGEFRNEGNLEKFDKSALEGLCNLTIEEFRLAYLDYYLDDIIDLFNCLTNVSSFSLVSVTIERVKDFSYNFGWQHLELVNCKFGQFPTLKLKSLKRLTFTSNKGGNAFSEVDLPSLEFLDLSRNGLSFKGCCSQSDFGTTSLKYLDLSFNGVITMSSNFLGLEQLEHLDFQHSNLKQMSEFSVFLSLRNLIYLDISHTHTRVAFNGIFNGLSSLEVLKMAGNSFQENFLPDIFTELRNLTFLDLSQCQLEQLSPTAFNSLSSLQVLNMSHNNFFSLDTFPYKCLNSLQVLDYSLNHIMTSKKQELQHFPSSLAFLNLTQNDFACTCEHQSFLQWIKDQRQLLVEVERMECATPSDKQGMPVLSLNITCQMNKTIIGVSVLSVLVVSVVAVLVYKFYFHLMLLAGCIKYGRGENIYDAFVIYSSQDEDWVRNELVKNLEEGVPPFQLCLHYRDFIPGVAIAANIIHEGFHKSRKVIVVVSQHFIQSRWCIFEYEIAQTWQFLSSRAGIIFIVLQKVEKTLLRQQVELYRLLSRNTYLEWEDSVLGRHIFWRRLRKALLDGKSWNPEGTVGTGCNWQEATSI

[16] = tested on: Mus musculus; assay: Antiinflammatory activity in LPS-induced C57/BL6 mouse model of acute lung injury assessed as reduction in interstitial edema at 10 mg/kg, ip pretreated for 30 mins followed by LPS challenge measured after 6 hrs by hematoxylin and eosin staining based microscopic analysis; format: functional, organism-based
[17] = tested on: Peritoneal macrophage; assay: Potency index, ratio of TJ-M2010-5 IC50 to test compound IC50 for inhibition of LPS-induced TNFalpha production in ICR mouse primary peritoneal macrophages; format: functional
[18] = target: Toll-like receptor 4/MD-2 (Homo sapiens) (UniProt O00206+Q9Y6Y9); assay: Inhibition of LPS-induced HA/FLAG-tagged TLR4 (unknown origin) interaction with MD2 (unknown origin) expressed in HEK293 cells at 20 uM after 48 hrs by co-immunoprecipitation method; format: cell-based
[19] = target: Myeloid differentiation primary response protein MyD88 (Mus musculus) (UniProt P22366); assay: Inhibition of MyD88 in ICR mouse primary peritoneal macrophages assessed as reduction in LPS-induced IkappaB levels at 20 uM preincubated for 30 mins followed by LPS-stimulation and measured after 20 mins by Western blot analysis
[20] = target: Toll-like receptor 4/Ly96 (Mus musculus) (UniProt Q9QUK6+Q9JHF9); assay: Inhibition of TLR4/MD2 interaction in LPS-induced mouse RAW264.7 at 20 uM measured after 30 mins by co-immunoprecipitation method; format: cell-based
[21] = tested on: Mus musculus; assay: Antiinflammatory activity in LPS-induced C57/BL6 mouse model of acute lung injury assessed as reduction in lung wet/dry ratio at 10 mg/kg, ip pretreated for 30 mins followed by LPS challenge measured after 6 hrs; format: functional, organism-based
[22] = tested on: Mus musculus; assay: Antiinflammatory activity in LPS-induced C57/BL6 mouse model of acute lung injury assessed as reduction in IL1beta mRNA expression at 10 mg/kg, ip pretreated for 30 mins followed by LPS challenge measured after 6 hrs by SYBR green dye based RT-qPCR analysis; format: functional, organism-based
[23] = tested on: Mus musculus; assay: Antiinflammatory activity in LPS-induced C57/BL6 mouse model of acute lung injury assessed as reduction in pulmonary congestion at 10 mg/kg, ip pretreated for 30 mins followed by LPS challenge measured after 6 hrs by hematoxylin and eosin staining based microscopic analysis; format: functional, organism-based
[24] = tested on: Peritoneal macrophage; assay: Antiinflammatory activity in ICR mouse primary peritoneal macrophages assessed as inhibition of LPS-induced IL-6 production preincubated for 2 hrs followed by LPS stimulation and measured after 22 hrs by ELISA; format: functional, cell-based
[25] = Cytotoxicity against ICR mouse primary peritoneal macrophages assessed as cell viability at 20 uM after 24 hrs by MTT assay relative to control; format: cell-based, Peritoneal macrophage; conditions: read-out: Activity
[26] = target: Myeloid differentiation primary response protein MyD88 (Mus musculus) (UniProt P22366); assay: Inhibition of MyD88 in ICR mouse primary peritoneal macrophages assessed as reduction in LPS-induced NFkappaB translocation at 20 uM preincubated for 30 mins followed by LPS-stimulation and measured after 20 mins by immunofluorescence microscopic analysis
[27] = tested on: Mus musculus; assay: Antiinflammatory activity in LPS-induced C57/BL6 mouse model of acute lung injury assessed as reduction in IL6 level in BALF at 10 mg/kg, ip pretreated for 30 mins followed by LPS challenge measured after 6 hrs by ELISA; format: functional, organism-based
[28] = target: Myeloid differentiation primary response protein MyD88 (Mus musculus) (UniProt P22366); assay: Inhibition of MyD88 in ICR mouse primary peritoneal macrophages assessed as reduction in LPS-induced ERK phosphorylation at 20 uM preincubated for 30 mins followed by LPS-stimulation and measured after 20 mins by Western blot analysis

Question: Which results are given for `COc1cc(-c2csc(NC(=O)CCN3CCN(Cc4cccc([N+](=O)[O-])c4)CC3)n2)ccc1O`?
Answer: Activity [1]: Active; Activity [2]: Active; Activity [3]: Active; Activity [4]: Active; Activity [5]: Active; viability at 24 h, 20 µM [6]: > 80%; Activity [7]: Active; Activity [8]: Active; inhibition [9]: Active; inhibition [10]: Active; inhibition [11]: Active; Activity [12]: Active; Ratio [13]: 5; viability at 24 h, 20 µM [14]: > 80%; Activity [15]: inactive; Activity [16]: Active; Ratio IC50 [17]: 13; inhibition [18]: inactive; inhibition [19]: Active; inhibition [20]: inactive; Activity [21]: Active; Activity [22]: Active; Activity [23]: Active; IC50 [24]: 2520 nM; inhibition [24]: Dose-dependent effect; viability at 24 h, 20 µM [25]: > 80%; inhibition [26]: Active; Activity [27]: Active; inhibition [28]: Active
